Assay: Solubility of dicamba and its sodium salt

SMILES: COc1c(Cl)ccc(Cl)c1C(=O)[O-].[Na+] [sodium salt of dicamba, sodium dicamba]
- aqueous solubility (fully neutralized (molar equivalence of 1) sodium salt, water): about 35 wt. % acid equivalent

SMILES: COc1c(Cl)ccc(Cl)c1C(=O)O [dicamba, 3,6-dichloro-2-methoxybenzoic acid]
- amount dissolved in mixtures of a water-miscible glycol and water (glycol 30% or higher by weight of the mixture): about 45 % by weight of the solution
